Data taken from US8592597B2, “Pyrrole compounds” (Takeda Pharmaceutical Company Limited, priority 2008, dated 2013).
Structures can show the parent of a compound that is named as a salt.

Legend:
HepG2 = experiment: ATP content test; format: cell-based, Human; details: HepG2, 100 μM, culture for one day, relative value to control (without drug)
Experimental: (§1) Human liver cancer-derived cell line HepG2 (ATCC No. HB-8065) was passaged using Dulbecco's Modified Eagle medium (DMEM; Invitrogen) containing 10% fetal bovine serum (FBS; TRACE SCIENTIFIC LTD.), 1 mmol/L sodium pyruvate (Invitrogen), 2 mmol/L L-glutamine (Invitrogen), 50 IU/mL penicillin (Invitrogen) and 50 μg/mL streptomycin (Invitrogen) at 5% CO2, 37° C. The test reagent was prepared with DMSO to 10 mM, and further diluted with DMEM medium containing 0.5% FBS, 1 mmol/L sodium pyruvate, 2 mmol/L L-glutamine, 50 IU/mL penicillin and 50 μg/mL streptomycin to a final concentration of DMSO of 0.1%. HepG2 (2×10^4 cells/well) was cultured on a 96 well white plate (Costar) with the test reagent at 5% CO2, 37° C. After culture for one day, the intracellular ATP content was measured using ATPLITE™ (PerkinElmer Life Sciences). The results are shown in Table 4 (n≧3, average value ±SD) as a relative value (%) to control (without addition of drug).

[1] = system: Caspase-3/7 activity in HepG2 cells; experiment: Caspase-3/7 activity test; format: cell-based, Human; details: HepG2, 100 μM, culture for one day, relative to maximum with Staurosporine (100%) and no reagent (0%)
Experimental: as §1
The Caspase-3/7 activity in the cells cultured for one day by a method similar to that in Experimental Example 3 was measured using CASPASE-GLO 3/7 Assay (Promega). The results are shown in Table 4 (n≧3, average value ±SD) as relative activity (%) of each reagent based on the maximum value of Caspase-3/7 activity when exposed to Staurosporine (100%), and the activity without addition of a test reagent (0%).

[2] = target: T1, proton, potassium-adenosine triphosphatase (H+/K+-ATPase) (Sus scrofa, UniProt P19156); experiment: Proton potassium-adenosine triphosphatase (H+,K+-ATPase) inhibitory activity test; format: biochemical; details: swine gastric mucous membrane microsomal fraction, pH 6.5, 37° C.
T1 construct: a gastric mucous membrane microsomal fraction was prepared from the stomach of swine; from tissue; host or cells: swine stomach, gastric mucous membrane microsomal fraction
Experimental: According to the method [Biochim. Biophys. Acta, 728, 31 (1983)] of Wallmark et al., a gastric mucous membrane microsomal fraction was prepared from the stomach of swine. First, the stomach was removed, washed with tap water, immersed in 3 mol/L brine, and the surface of the mucous membrane was wiped with a paper towel. The gastric mucous membrane was detached, chopped, and homogenized in a 0.25 mol/L saccharose solution (pH 6.8) containing 1 mmol/L EDTA and 10 mmol/L tris-hydrochloric acid using polytron (Kinematica). The obtained homogenate was centrifuged at 20,000×g for 30 min and the supernatant was centrifuged at 100,000×g for 90 min. The precipitate was suspended in 0.25 mol/L saccharose solution, superimposed on a 0.25 mol/L saccharose solution containing 7.5% Ficoll, and centrifuged at 100,000×g for 5 hr. The fraction containing the interface between the both layers was recovered, and centrifugally washed with 0.25 mol/L saccharose solution. The obtained microsomal fraction was used as a proton, potassium-adenosine triphosphatase standard product.
To 40 μL of a 50 mmol/L HEPES-tris buffer (5 mmol/L magnesium chloride, 10 mmol/L potassium chloride, 10 μmol/L valinomycin, pH=6.5) containing 2.5 μg/mL (based on the protein concentration) of the enzyme standard product was added a test compound (5 μL) dissolved in a 10% aqueous dimethyl sulfoxide solution, and the mixture was incubated at 37° C. for 30 min. The enzyme reaction was started by adding 5 μL of a 2 mmol/L adenosine triphosphate tris salt solution (50 mmol/L HEPES-tris buffer (5 mmol/L magnesium chloride, pH 6.5)). The enzyme reaction was carried out at 37° C. for 20 min, and 15 μL of a malachite green solution (0.12% malachite green solution in sulfuric acid (2.5 mol/L), 7.5% ammonium molybdate and 11% Tween 20 were mixed at a ratio of 100:25:2) was added to quench the reaction. After allowing to stand at room temperature for 15 min, the resulting reaction product of inorganic phosphorus with malachite green was colorimetrically determined at a wavelength of 620 nm. In addition, the amount of the inorganic phosphoric acid in the reaction solution free of potassium chloride was measured in the same manner, which was subtracted from the inorganic phosphoric acid amount in the presence of potassium chloride to determine the proton, potassium-adenosine triphosphatase activity. The inhibitory rate (%) was determined from the activity value of the control and the activity values of various concentrations of the test compound, and the 50% inhibitory concentration (IC50) of the proton, potassium-adenosine triphosphatase was determined.

T1 sequence (P19156 2-1034 limits assumed): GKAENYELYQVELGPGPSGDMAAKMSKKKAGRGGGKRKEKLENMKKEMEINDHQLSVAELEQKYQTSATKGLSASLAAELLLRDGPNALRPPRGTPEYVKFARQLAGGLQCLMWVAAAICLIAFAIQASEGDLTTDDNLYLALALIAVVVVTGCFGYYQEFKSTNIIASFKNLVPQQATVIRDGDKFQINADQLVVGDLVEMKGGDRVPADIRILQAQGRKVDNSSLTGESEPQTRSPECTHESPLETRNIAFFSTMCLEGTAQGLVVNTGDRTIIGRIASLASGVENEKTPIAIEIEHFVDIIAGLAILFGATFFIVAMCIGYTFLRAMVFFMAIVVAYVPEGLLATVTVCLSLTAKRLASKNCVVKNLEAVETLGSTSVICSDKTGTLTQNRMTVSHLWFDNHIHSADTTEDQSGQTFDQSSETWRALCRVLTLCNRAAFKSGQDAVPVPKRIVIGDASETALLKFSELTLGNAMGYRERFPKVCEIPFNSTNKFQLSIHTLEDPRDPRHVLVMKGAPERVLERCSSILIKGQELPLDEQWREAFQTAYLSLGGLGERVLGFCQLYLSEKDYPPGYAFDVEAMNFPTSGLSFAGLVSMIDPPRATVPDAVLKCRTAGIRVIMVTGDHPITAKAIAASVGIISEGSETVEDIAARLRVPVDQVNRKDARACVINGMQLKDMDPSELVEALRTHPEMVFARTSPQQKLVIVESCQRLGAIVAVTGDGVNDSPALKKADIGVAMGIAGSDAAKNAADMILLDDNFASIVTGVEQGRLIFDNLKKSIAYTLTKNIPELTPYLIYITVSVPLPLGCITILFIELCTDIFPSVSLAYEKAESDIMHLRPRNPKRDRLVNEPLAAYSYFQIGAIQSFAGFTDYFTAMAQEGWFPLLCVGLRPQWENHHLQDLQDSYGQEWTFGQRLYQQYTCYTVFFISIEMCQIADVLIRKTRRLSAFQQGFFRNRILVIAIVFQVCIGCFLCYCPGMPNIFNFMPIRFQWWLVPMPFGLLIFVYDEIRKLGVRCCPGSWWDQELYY
T1 sequence (P18434 whole entry partner): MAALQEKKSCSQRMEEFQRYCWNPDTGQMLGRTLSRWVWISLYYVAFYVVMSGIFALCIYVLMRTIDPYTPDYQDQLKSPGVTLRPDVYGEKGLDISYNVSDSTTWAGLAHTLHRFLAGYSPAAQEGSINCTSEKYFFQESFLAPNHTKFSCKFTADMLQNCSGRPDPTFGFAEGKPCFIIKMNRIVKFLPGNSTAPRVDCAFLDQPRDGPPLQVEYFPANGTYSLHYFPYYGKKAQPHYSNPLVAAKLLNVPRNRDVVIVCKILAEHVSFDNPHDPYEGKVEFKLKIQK

| ATP content (%, 100 μM) (HepG2) [%] | Caspase-3/7 activity (%, 100 μM) [1] [%] | IC50 [2] [nM] | Compound |
| --- | --- | --- | --- |
| 76.7 | 2.4 | 180 | CNCc1cn(S(=O)(=O)c2ccc(C)nc2)c(-c2cccnc2F)c1F [Example 8, 1-{4-Fluoro-5-(2-fluoropyridin-3-yl)-1-[(6-methylpyridin-3-yl)sulfonyl]-1H-pyrrol-3-yl}-N-methylmethanamine 0.5 fumarate] |
| 84.5 | −0.6 | 140 | CNCc1cn(S(=O)(=O)c2cc(OC)ccn2)c(-c2cccnc2F)c1F [Example 4, 1-{4-Fluoro-5-(2-fluoropyridin-3-yl)-1-[(4-methoxypyridin-2-yl)sulfonyl]-1H-pyrrol-3-yl}-N-methylmethanamine hydrochloride] |
| – | – | 160 | CNCc1cn(S(=O)(=O)c2cncc(F)c2)c(-c2cccnc2F)c1F [Example 27, 1-{4-Fluoro-5-(2-fluoropyridin-3-yl)-1-[(5-fluoropyridin-3-yl)sulfonyl]-1H-pyrrol-3-yl}-N-methylmethanamine L-tartrate] |
| 88.9 | 0.3 | 200 | CNCc1cn(S(=O)(=O)c2cncc(F)c2)c(-c2cccnc2F)c1F [Example 5, 1-{4-Fluoro-5-(2-fluoropyridin-3-yl)-1-[(5-fluoropyridin-3-yl)sulfonyl]-1H-pyrrol-3-yl}-N-methylmethanamine hydrochloride] |
| 80.0 | 0.9 | 280 | CNCc1cn(S(=O)(=O)c2ccc(OC)cn2)c(-c2cccnc2F)c1F [Example 10, 1-{4-Fluoro-5-(2-fluoropyridin-3-yl)-1-[(5-methoxypyridin-2-yl)sulfonyl]-1H-pyrrol-3-yl}-N-methylmethanamine hydrochloride] |
| 85.5 | −1.1 | 100 | CNCc1cn(S(=O)(=O)c2cc(C)ccn2)c(-c2cccnc2F)c1F [Example 2, 1-{4-Fluoro-5-(2-fluoropyridin-3-yl)-1-[(4-methylpyridin-2-yl)sulfonyl]-1H-pyrrol-3-yl}-N-methylmethanamine hydrochloride] |
| – | – | 83 | CNCc1cn(S(=O)(=O)c2cc(C)ccn2)c(-c2cccnc2F)c1F [Example 23, 1-{4-Fluoro-5-(2-fluoropyridin-3-yl)-1-[(4-methylpyridin-2-yl)sulfonyl]-1H-pyrrol-3-yl}-N-methylmethanamine fumarate] |
| 86.5 | −0.5 | 100 | CNCc1cn(S(=O)(=O)c2ccc(F)cn2)c(-c2cccnc2F)c1F [Example 3, 1-{4-Fluoro-5-(2-fluoropyridin-3-yl)-1-[(5-fluoropyridin-2-yl)sulfonyl]-1H-pyrrol-3-yl}-N-methylmethanamine hydrochloride] |
| – | – | 140 | CNCc1cn(S(=O)(=O)c2cc(C)ccn2)c(-c2cccnc2F)c1F [Example 24, 1-{4-Fluoro-5-(2-fluoropyridin-3-yl)-1-[(4-methylpyridin-2-yl)sulfonyl]-1H-pyrrol-3-yl}-N-methylmethanamine succinate] |
| – | – | 130 | CNCc1cn(S(=O)(=O)c2cncc(F)c2)c(-c2cccnc2F)c1F [Example 26, 1-{4-Fluoro-5-(2-fluoropyridin-3-yl)-1-[(5-fluoropyridin-3-yl)sulfonyl]-1H-pyrrol-3-yl}-N-methylmethanamine succinate] |
| – | – | 200 | CNCc1cn(S(=O)(=O)c2cncc(F)c2)c(-c2cccnc2F)c1F [Example 25, 1-{4-Fluoro-5-(2-fluoropyridin-3-yl)-1-[(5-fluoropyridin-3-yl)sulfonyl]-1H-pyrrol-3-yl}-N-methylmethanamine 0.5 fumarate] |
